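Growth conditions: 96-well plates. Treatment: test compound, 48 hours, 5 concentrations. Analysis: linear interpolation between bracketing concentrations; unreached endpoints set to highest concentration. GI50 = concentration required for 50% inhibition of growth. TGI: concentration producing complete growth inhibition.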

13 compounds from PubChem BioAssay (NCI) can be followed below.

Some test systems named below: K-562 leukemia; HL-60(TB) leukemia; OVCAR-8 ovarian; HOP-62 NSCLC; UACC-62 melanoma; OVCAR-4 ovarian; MALME-3M melanoma; NCI-H23 lung; HT29 colon.
Assay in all cases: inhibition of tumour cell growth, NCI panel, 48 h

As to `NC(=S)NNC(=O)CCC(=O)Nc1ccc(Cl)cc1Cl`, the TGI in the experiment with K-562 leukemia, in the experiment with HL-60(TB) leukemia, in the experiment with OVCAR-8 ovarian, with HOP-62 NSCLC, in the experiment on UACC-62 melanoma and in the experiment on OVCAR-4 ovarian was over 100 µM each time. Also, the TGI in the experiment on MALME-3M melanoma, in the experiment on NCI-H23 lung and in the experiment with HT29 colon was over 100 µM each time.

Turning to `NCCCC1NC(=O)/C(=C(O)/C=C/C2CCC[C@@H]2CC2SCCS2)C1=O` (stereo not given in full), the TGI in the experiment on K-562 leukemia is over 100 µM; in the experiment on HL-60(TB) leukemia, 64.3 µM; with OVCAR-8 ovarian, over 100 µM; in the experiment with HOP-62 NSCLC, over 100 µM; in the experiment on UACC-62 melanoma, over 100 µM; in the experiment with OVCAR-4 ovarian, over 100 µM. Also, the TGI in the experiment with MALME-3M melanoma, with NCI-H23 lung and in the experiment with HT29 colon was over 100 µM throughout.

In the case of `CC(=O)OCC1OC(n2c(=O)n(-c3ccccc3)c(=O)c3cc(Br)cc(Br)c32)C(OC(C)=O)C(OC(C)=O)C1OC(C)=O` (stereo not given), the TGI is over 100 µM in the experiment on K-562 leukemia; over 100 µM in the experiment on HL-60(TB) leukemia; over 100 µM with OVCAR-8 ovarian; over 100 µM in the experiment with HOP-62 NSCLC; over 100 µM in the experiment with UACC-62 melanoma; 61.5 µM in the experiment with OVCAR-4 ovarian. For the same compound, the TGI with MALME-3M melanoma, in the experiment on NCI-H23 lung and in the experiment on HT29 colon was over 100 µM each time.

For the compound `CCOC(=O)[C@H]1Nc2ccc(Cl)cc2[C@H]2OCC[C@@H]12`, the TGI in the experiment with K-562 leukemia, with HL-60(TB) leukemia, in the experiment with OVCAR-8 ovarian, with HOP-62 NSCLC, in the experiment on UACC-62 melanoma and in the experiment with OVCAR-4 ovarian was over 100 µM in each case. In addition, the TGI with MALME-3M melanoma, with NCI-H23 lung and in the experiment on HT29 colon was over 100 µM each time.

As to `COc1ccc2nc(NC(=O)C(=O)C(C(=O)c3ccccc3-c3ccccc3)C3OC(=O)c4ccccc43)sc2c1` (stereo not given), the TGI with K-562 leukemia is over 100 µM; in the experiment with HL-60(TB) leukemia it was 72.5 µM; in the experiment on OVCAR-8 ovarian, 59.3 µM; in the experiment with HOP-62 NSCLC it was 35.3 µM; with UACC-62 melanoma, 34.3 µM; in the experiment with MALME-3M melanoma, 27.6 µM. Besides, the TGI in the experiment with NCI-H23 lung is 30.5 µM; in the experiment on HT29 colon, over 100 µM.

As to `COc1cc([C@@H]2c3cc4c(cc3[C@@H](NCc3ccccc3)C3COC(=O)[C@@H]32)OCO4)cc(OC)c1O` (stereo not given in full), the TGI is over 79.1 µM in the experiment with K-562 leukemia; 10.1 µM in the experiment with HL-60(TB) leukemia; 51.7 µM in the experiment with OVCAR-8 ovarian; 9.63 µM in the experiment with HOP-62 NSCLC; 22.1 µM in the experiment with UACC-62 melanoma; over 75.5 µM with OVCAR-4 ovarian. Moreover, the results for the TGI in the experiment on MALME-3M melanoma, in the experiment with NCI-H23 lung and in the experiment on HT29 colon were 32.7 µM, 23.8 µM and 60.1 µM, respectively.

Take `CCC[CH2][Sn]([CH2]CCC)([O]C(=O)c1cc(OC)c(OC)cc1OC)[O]C(=O)c1cc(OC)c(OC)cc1OC`: the GI50 is 0.324 µM in the experiment on K-562 leukemia; 1.48 µM in the experiment on OVCAR-8 ovarian; 2.35 µM in the experiment on HOP-62 NSCLC; 1.12 µM in the experiment on UACC-62 melanoma; 1.9 µM in the experiment with OVCAR-4 ovarian; 0.793 µM in the experiment with MALME-3M melanoma. In addition, the GI50 with NCI-H23 lung is 0.674 µM; in the experiment with HT29 colon, 1.96 µM. Further, the TGI with K-562 leukemia came out at 2.97 µM; in the experiment with OVCAR-8 ovarian, 3.03 µM; in the experiment with HOP-62 NSCLC, 4.41 µM; with UACC-62 melanoma it was 2.37 µM; in the experiment on OVCAR-4 ovarian it was 4.31 µM; with MALME-3M melanoma it was 2.08 µM. For the same compound, the TGI worked out at 1.96 µM with NCI-H23 lung and 4.67 µM in the experiment on HT29 colon.

With `Cc1ccccc1-c1c(N)nc(N)nc1C(=O)Nc1nccs1`, the TGI in the experiment with K-562 leukemia, in the experiment with HL-60(TB) leukemia, in the experiment on OVCAR-8 ovarian, with HOP-62 NSCLC, in the experiment on UACC-62 melanoma and in the experiment on OVCAR-4 ovarian was over 100 µM throughout. The TGI in the experiment with MALME-3M melanoma, with NCI-H23 lung and in the experiment on HT29 colon was over 100 µM throughout.

On to `CCC[CH2][Ge]([CH2]CCC)([CH2]CCC)[O]C(=O)C(O)c1ccccc1` (stereo not given), for which the GI50 in the experiment with K-562 leukemia was 0.443 µM; in the experiment on OVCAR-8 ovarian it was 10.6 µM; in the experiment with HOP-62 NSCLC it was 9.67 µM; in the experiment on UACC-62 melanoma, 4.03 µM; with OVCAR-4 ovarian, 0.794 µM; in the experiment with MALME-3M melanoma it was 1.45 µM. Also, the GI50 was 0.366 µM in the experiment with NCI-H23 lung and 3.32 µM in the experiment on HT29 colon. For the same compound, the TGI in the experiment with K-562 leukemia worked out at 19.9 µM; with HL-60(TB) leukemia it was 4.3 µM; in the experiment with OVCAR-8 ovarian, 22.4 µM; with HOP-62 NSCLC, 23.4 µM; with UACC-62 melanoma it was 18.1 µM; in the experiment on OVCAR-4 ovarian, 29 µM. Moreover, the TGI in the experiment on MALME-3M melanoma was 18 µM; in the experiment on NCI-H23 lung it was 9.91 µM; in the experiment with HT29 colon, 20.8 µM.

Consider `Cc1ccc(NC(=O)CC/C(CC(=O)c2ccc(F)cc2)=N\NC(=O)C(=O)NN)cc1C`, for which the TGI with K-562 leukemia, in the experiment with HL-60(TB) leukemia, with OVCAR-8 ovarian, in the experiment on HOP-62 NSCLC, in the experiment on UACC-62 melanoma and in the experiment on OVCAR-4 ovarian was over 100 µM in each case. The TGI with MALME-3M melanoma, in the experiment on NCI-H23 lung and in the experiment on HT29 colon was over 100 µM in each case.

As to `Cc1ccc(S(=O)(=O)SCc2ccccc2CSS(=O)(=O)c2ccc(C)cc2)cc1`, the TGI in the experiment with K-562 leukemia was 47 µM; in the experiment with HL-60(TB) leukemia, 34.7 µM; with OVCAR-8 ovarian, 76.5 µM; in the experiment on HOP-62 NSCLC, over 100 µM; with UACC-62 melanoma, 31 µM; with OVCAR-4 ovarian, 33.9 µM. Besides, the TGI in the experiment on MALME-3M melanoma is over 100 µM; with NCI-H23 lung, 46.4 µM; with HT29 colon, 52.9 µM.

Consider `CC(=O)Nc1ccccc1-c1cnc2ccccc2n1`, for which the TGI with K-562 leukemia, with HL-60(TB) leukemia, in the experiment on OVCAR-8 ovarian, in the experiment with HOP-62 NSCLC, with UACC-62 melanoma and with OVCAR-4 ovarian was over 100 µM in each case. Further, the TGI with MALME-3M melanoma, with NCI-H23 lung and in the experiment on HT29 colon was over 100 µM throughout.

On to `Nc1ccc2c(c1)CC1c3ccccc3C(C2)c2ccccc21`, for which the TGI in the experiment on K-562 leukemia, with HL-60(TB) leukemia, in the experiment with OVCAR-8 ovarian, in the experiment on HOP-62 NSCLC, with UACC-62 melanoma and in the experiment on OVCAR-4 ovarian was over 100 µM in each case. The TGI with MALME-3M melanoma and in the experiment on HT29 colon was over 100 µM throughout.
